Experimental data reported in PubChem BioAssay (NCI).
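48-hour exposure; five concentrations; linearly interpolated endpoints. GI50 marks 50% less growth. TGI denotes the concentration required for complete inhibition of growth.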

Assays:
Assay in all cases: NCI anticancer screen, dose series, 48 h
[1] = test system: NCI-H23 lung
[2] = test system: K-562 leukemia
[3] = test system: SK-MEL-28 melanoma
[4] = test system: RXF 393 renal
[5] = test system: HL-60(TB) leukemia
[6] = test system: IGROV1 ovarian
[7] = test system: LOX IMVI melanoma
[8] = test system: UACC-62 melanoma
[9] = test system: M14 melanoma
[10] = test system: MDA-MB-231 breast

Row | Compound | TGI [1] | TGI [2] | TGI [3] | TGI [4] | TGI [5] | TGI [6] | TGI [7] | TGI [8] | TGI [9] | GI50 [8] | GI50 [9] | GI50 [1] | GI50 [10] | TGI [10] | GI50 [2] | GI50 [3] | GI50 [5] | GI50 [6] | GI50 [7] | GI50 [4]
1 | Nc1ccn(CCNCCn2cnc3nc(N)[nH]c(=O)c32)c(=O)n1 | > 100 µM | > 100 µM | > 100 µM | > 100 µM | > 100 µM | > 100 µM | > 100 µM |  |  |  |  |  |  |  |  |  |  |  |  | 
2 | Cc1[nH]ccc2c1[nH]c1cc(=O)ccc12 | > 100 µM | > 100 µM | > 100 µM | > 100 µM | > 100 µM | > 100 µM | > 100 µM | > 100 µM | > 100 µM |  |  |  |  |  |  |  |  |  |  | 
3 | NC1C[C@H](n2cc(/C=C/Br)c(=O)[nH]c2=O)C[C@@H]1CO (stereo partly specified) | > 100 µM | > 100 µM | > 100 µM | > 100 µM | > 100 µM |  | > 100 µM | > 100 µM | > 100 µM |  |  |  |  |  |  |  |  |  |  | 
4 | COc1cccc2c1c(C(=O)C(=O)Nc1cc(C)no1)cn2Cc1ccc(F)cc1 | > 84 µM | > 36.5 µM | > 89.6 µM |  | > 20.2 µM | > 45.8 µM | > 100 µM | > 100 µM | > 79.9 µM | 3.29 µM | 5.42 µM | > 40.5 µM | 5.41 µM | > 100 µM | 1.91 µM | 7.59 µM | 2.2 µM | 3.68 µM | 7.87 µM | 
5 | COc1cc(OC(C)=O)cc2c(OC(C)=O)ccc(OC(C)=O)c12 | > 100 µM | > 100 µM | > 100 µM | > 100 µM | > 100 µM | > 100 µM | > 100 µM | > 100 µM | > 100 µM |  |  |  |  |  |  |  |  |  |  | 
6 | Nn1c(NNC(=O)C(=O)Nc2cc(Cl)c(Cl)cc2Cl)n[nH]c1=S | > 100 µM | > 100 µM | > 100 µM | > 100 µM |  | > 100 µM | > 100 µM | > 100 µM | > 100 µM |  |  |  |  |  |  |  |  |  |  | 
7 | COc1ccc(C2=Nc3ccccc3NC(=O)C2)cc1 | 67 µM | > 100 µM | > 100 µM | 46.2 µM | 42.1 µM | > 100 µM | 37.1 µM | > 100 µM | > 100 µM |  |  |  |  |  |  |  |  |  |  | 
8 | CCCNC1=C(C(=O)OCC)C(=O)CO1 | > 100 µM | > 100 µM | > 100 µM | > 100 µM | > 100 µM | > 100 µM | > 100 µM | > 100 µM | > 100 µM |  |  |  |  |  |  |  |  |  |  | 
9 | O=C(N/C(=C\c1ccc2c(c1)OCO2)c1nc2ccccc2[nH]1)c1ccccc1 | 53.4 µM | > 79.6 µM | 52.1 µM | 81.5 µM | 37.4 µM | 77.3 µM | > 100 µM | 56.9 µM | > 90.9 µM |  |  |  |  |  |  |  |  |  |  | 
10 | CC1=Nc2ccccc2S/C1=C(/C)NNC(=O)C(N)=O | > 100 µM | > 100 µM | > 100 µM | > 100 µM | > 100 µM | > 100 µM | > 100 µM | > 100 µM | > 100 µM |  |  |  |  |  |  |  |  |  |  | 
11 | O=C(COc1ccc2c(=O)cc(-c3ccccc3)oc2c1)N1CCN(c2ccccc2)CC1 | > 100 µM | > 100 µM | > 100 µM | > 100 µM | 87.3 µM | > 100 µM | > 100 µM | > 100 µM | > 100 µM |  |  |  |  |  |  |  |  |  |  | 
12 | CCc1ccccc1NC(=O)C(=O)CC(=O)c1sc(Nc2ccccc2)nc1C | > 100 µM | > 100 µM | > 100 µM | > 100 µM | > 100 µM | > 100 µM | > 100 µM | > 100 µM | > 100 µM |  |  |  |  |  |  |  |  |  |  | 
13 | Cc1cc(N(CCC#N)CCC#N)ccc1N=Nc1cccc(C(=O)O)c1 | > 100 µM | > 100 µM | > 100 µM | > 100 µM | > 100 µM | > 100 µM | > 100 µM | > 100 µM | > 100 µM |  |  |  |  |  |  |  |  |  |  | 
14 | CCOC(=O)COc1ccccc1/C=C1\CCC(CN(C)C)C1=O (stereo unspecified) | 19.3 µM | 6.51 µM | 7.21 µM | 7.94 µM | 2.58 µM | 30.4 µM | 5.43 µM | 17.4 µM | 22.6 µM |  |  |  |  |  |  |  |  |  |  | 
15 | N#C/C(=C\c1ccc(O)c(O)c1)C(N)=S | > 100 µM | > 100 µM | > 100 µM | > 89.7 µM | > 20 µM | > 100 µM | > 100 µM | > 100 µM | > 100 µM |  |  |  |  |  |  |  |  |  |  | 
16 | CCCCC(CC)CN=C(N)NC(N)=NCCCCCCN=C(N)NC(N)=NCC(CC)CCCC (stereo unspecified) |  |  | 5.03 µM | 6.43 µM | 3.97 µM |  |  | 4.12 µM | 6.03 µM | 1.84 µM | 2.49 µM |  | 1.85 µM | 3.65 µM |  | 2.26 µM | 2.07 µM |  |  | 2.27 µM
17 | CC1C=C(OC(=O)c2ccccc2)C(=O)C(n2cc(F)c(=O)[nH]c2=O)O1 (stereo unspecified) | > 100 µM | > 100 µM | > 100 µM |  | > 100 µM | > 100 µM |  | > 100 µM | > 100 µM |  |  |  |  |  |  |  |  |  |  | 
18 | C=CCC[CH2][Sn]([c]1ccccc1)([c]1ccccc1)[c]1ccccc1 | 3.01 µM | 16.5 µM | 3.47 µM | 2.66 µM | > 100 µM | 3.35 µM | 2.38 µM | 2.36 µM | 3.09 µM | 1.11 µM | 1.62 µM | 1.64 µM |  |  | 2.15 µM | 1.84 µM | 5.29 µM | 1.77 µM | 1.16 µM | 1.34 µM
19 | O=C(CN1CCOCC1)Nc1nc(-c2ccc(Cl)cc2)cs1 | 40.1 µM | 94.5 µM | 74.8 µM |  | 44.9 µM | > 100 µM | 58.7 µM | 53.3 µM | > 100 µM |  |  |  |  |  |  |  |  |  |  | 
20 | Cc1c(C(=O)C/C(=N\O)C(=O)Nc2cc(Cl)c(Cl)cc2Cl)[n+](=O)c2ccccc2n1[O-] | 65.6 µM | > 100 µM | 52.1 µM | 68.8 µM | > 100 µM | 20.9 µM | 43.6 µM | 16.5 µM | 15.9 µM |  |  |  |  |  |  |  |  |  |  | 
21 | CC1SC2=NC3=C(c4ccccc4C3=O)C(c3ccc(F)cc3)N2C1=O (stereo unspecified) | > 100 µM | > 100 µM | > 100 µM |  | > 100 µM | > 100 µM |  | > 100 µM | > 100 µM |  |  |  |  |  |  |  |  |  |  | 
